Measured values published in paper PMC11009625, “Antibiotic class with potent in vivo activity targeting lipopolysaccharide synthesis in Gram-negative bacteria” (Proceedings of the National Academy of Sciences of the …, 2024).
In brackets after ≈: the same amount, converted by molar mass. Like-named read-outs stand apart in the source and are kept apart here.

Legend:
Eco MG1655 ∆tolC (EN243) = test: MIC, efflux-defective parental strain EN243; assay type: cell-based, E. coli; conditions: Escherichia coli, MG1655, read-out: MIC EN243
Procedure: (§1) Minimum inhibitory concentration (MIC) values were determined according to the Clinical Laboratory Standards Institute guidelines. Frequency of resistance was determined by plating ~5 × 10^8 bacterial cells on agar-solidified media plates containing test compound at concentrations corresponding to four times the measured solid-media MIC of the strains. Colonies were counted after 24 h, restreaked onto media containing the same concentration of compound, and the MIC remeasured against the assayed compound. Genomic DNA from isolated clones was sequenced by paired-end sequencing on an Illumina MiSeq device. Complete experimental details available in SI Appendix. […]
Minimum inhibitory concentration (MIC) determination. Broth microdilution and agar dilution
MIC assays were conducted according to CLSI guidelines (M07-2012). Appropriate inoculation
suspension density was assessed using a Sensititre Nephelometer with a Sensititre 0.5
(§2) McFarland Standard. […]

[1] = system: lpxH mutants of EN243 (Eco MG1655 ∆tolC); test: MIC, lpxH mutants with reduced susceptibility in efflux-defective E. coli background; assay type: cell-based; conditions: Escherichia coli
Procedure: as §1
Minimum inhibitory concentration (MIC) determination. Broth microdilution and agar dilution MIC assays were conducted according to CLSI guidelines (M07-2012). Appropriate inoculation suspension density was assessed using a Sensititre Nephelometer with a Sensititre 0.5 […]
as §2
Frequency of Resistance. Frequency of resistance was assessed by spread plating between […] cfu of a freshly-grown culture of the strain of interest on plates containing a concentration of compound corresponding to 4 times the MIC of the strain (as determined by agar-dilution MIC). Serial dilutions of the same cultures were plated on non-selective media to determine the number of cells plated. The frequency of resistance was determined by dividing the number of colonies obtained on the selective plates after 24 hours of growth by the calculated total population plated. Typically 4 independently grown cultures were used to initiate 4 separate experiments, and the total combined number of obtained colonies and plated populations were used for calculations. Isolated colonies from selection plates were re-streaked on an additional plate containing the same concentration of compound used in the original selection. Clones were saved at -80 °C for subsequent analysis.
Whole-genome sequencing and data analysis. Genomic DNA of selected clones was prepared using an Epicentre MasterPure Complete DNA Purification Kit. Whole-genome sequencing libraries were prepared using an Illumina Nextera XT Library Preparation Kit. The libraries were sequenced using an Illumina MiSeq device with a V3 600-cycle reagent kit. Whole-genome sequencing data was analyzed using CLC Genomics Workbench Version 11. […]

[2] = Plasma protein binding (RED device); assay type: in vitro ADME; conditions: plasma (50% plasma, 50% isotonic buffer), pH 7.4; human plasma
Procedure: Thermodynamic solubility was assessed by dissolving 2 to 3 mg of test compound to equilibrium in 100 mM KPO4-buffer, pH 7.4. The metabolic stability assay was performed in the presence of human and mouse liver microsomes by measurement of test compounds disappearance over time (60 min). The plasma protein binding assay, including stability estimation, was performed using the RED devices (Thermo Fisher Scientific) in the presence of human and mouse plasma. All samples from the in vitro ADME studies were quantified by liquid chromatography-triple quadrupole mass spectrometry (LC–MS/MS). The assays were performed as previously described ([36]) and the details are available in SI Appendix. Cytotoxicity was assessed by incubation of test compounds in the presence of HepG2 cells for 72 h as previously described ([37]).
Plasma protein binding and plasma stability in human and animal plasma. Pooled,
anonymized human plasma was provided by Uppsala Academic Hospital and was collected from
two donors (non-smoking) (citric acid). In brief, 0.2 ml of the plasma (50% plasma, 50% isotonic
buffer) test solution (typically 10 μM final compound concentration) was transferred to the
membrane tube in the RED insert (ThermoFisher Scientific). 0.35 ml isotonic phosphate buffer
pH 7.4 was added to the other side of the membrane. The 96-well base plate was then sealed
with an adhesive plastic film (Scotch Pad) to prevent evaporation. The sample was incubated
with rapid rotation (900 rpm) on a Kisker rotational incubator at 37°C for 4 h to achieve
equilibrium. A stability test of the test solution was prepared (to allow detection of drug
degradation), 100 μL of the plasma test solution (in a plastic vial or on a sealed plate) was
incubated at 37°C for 4 h (or as long as the dialysis time). The plasma test solution was frozen
directly after the administration to prevent any degradation. Prior to LC-MS/MS analysis the
plasma and buffer sample were treated with the addition of Methanol (1:3) containing Warfarin
as internal standard to precipitate proteins. The standard curve was created using the plasma
standard. The plate is then sealed, centrifuged and the supernatant is analysed by liquid
chromatography coupled to triple quadrupole mass spectrometry (LC-MS/MS). […]
Liquid chromatography coupled to triple quadrupole mass spectrometry (LC-MS/MS). The test
compounds were optimized on a Waters Acquity UPLC XEVO TQ-S micro system (Waters Corp.)
operating in multiple reaction monitoring (MRM) mode with positive or negative electrospray
ionization. Compounds were optimized by using the QuanOptimize software (Waters Corp.).
For chromatographic separation, a C18 BEH 1.7 µm column was used, with a general gradient of
1% to 90% of mobile phase B over a total running time of 2 min. Mobile phase A consisted of
5% acetonitrile and 0.1% formic acid in purified water, and mobile phase B of 0.1% formic acid
in 100% acetonitrile. The flow rate was set to 0.5 ml/min and 5 µL of the sample was injected.

| SMILES | MIC (Eco MG1655 ∆tolC (EN243)) | MIC ([1]; MG1655, read-out: MIC CH6045) | MIC ([1]; MG1655, read-out: MIC CH6047) | MIC ([1]; MG1655, read-out: MIC CH6048) | MIC ([1]; MG1655, read-out: MIC CH6051) | MIC ([1]; MG1655, read-out: MIC CH7010) | MIC ([1]; MG1655, read-out: MIC CH7011) | MIC ([1]; MG1655, read-out: MIC CH7012) | MIC ([1]; MG1655, read-out: MIC CH7013) | MIC ([1]; MG1655, read-out: MIC CH7015) | MIC ([1]; MG1655, read-out: MIC CH7016) | MIC ([1]; MG1655, read-out: MIC CH8845) | MIC ([1]; MG1655, read-out: MIC CH8846) | MIC ([1]; MG1655, read-out: MIC CH8847) | MIC ([1]; MG1655, read-out: MIC CH8848) | MIC ([1]; MG1655, read-out: MIC CH8850) | MIC ([1]; MG1655, read-out: MIC CH8851) | MIC ([1]; MG1655, read-out: MIC CH8853) | MIC ([1]; MG1655, read-out: MIC CH8854) | fraction unbound at 4 h, 10 µM [2] | further results |
| --- | --- | --- | --- | --- | --- | --- | --- | --- | --- | --- | --- | --- | --- | --- | --- | --- | --- | --- | --- | --- | --- |
| CC(=O)N1CCc2cc(S(=O)(=O)N3CCN(c4cccc(C(F)(F)F)c4)CC3)ccc21 [AZ1, reference compound] | 0.125 µg/mL (≈ 0.276 µM) | 2 µg/mL (≈ 4.41 µM) | > 64 µg/mL | 0.5 µg/mL (≈ 1.1 µM) | > 64 µg/mL | 2 µg/mL (≈ 4.41 µM) | 2 µg/mL (≈ 4.41 µM) | 4 µg/mL (≈ 8.82 µM) | 64 µg/mL (≈ 141 µM) | > 64 µg/mL | 2 µg/mL (≈ 4.41 µM) | 2 µg/mL (≈ 4.41 µM) | 2 µg/mL (≈ 4.41 µM) | > 64 µg/mL | 4 µg/mL (≈ 8.82 µM) | 2 µg/mL (≈ 4.41 µM) | 1 µg/mL (≈ 2.21 µM) | 2 µg/mL (≈ 4.41 µM) | 2 µg/mL (≈ 4.41 µM) | – | MIC ([1]; MG1655, read-out: MIC CH8855): > 64 µg/mL; MIC ([1]; MG1655, read-out: MIC CH8856): > 64 µg/mL; MIC ([1]; MG1655, read-out: MIC CH8868): > 64 µg/mL; MIC ([1]; MG1655, read-out: MIC CH8869): 0.125 µg/mL (≈ 0.276 µM); MIC ([1]; MG1655, read-out: MIC CH8870): > 64 µg/mL; MIC ([1]; MG1655, read-out: MIC CH8871): > 64 µg/mL |
| CN(c1ccc(CNCCN)cc1C(=O)Nc1ccc(S(=O)(=O)N2CCN(c3cc(Cl)cc(Cl)c3)CC2)cc1)S(C)(=O)=O [EBL-3025] | – | – | – | – | – | – | – | – | – | – | – | – | – | – | – | – | – | – | – | 0.001 | – |
| Cc1cc(C#N)nc(N2CCN(S(=O)(=O)c3ccc(NC(=O)c4ccccc4N(C)S(C)(=O)=O)cc3)CC2)n1 [EBL-3339] | – | – | – | – | – | – | – | – | – | – | – | – | – | – | – | – | – | – | – | 0.0054 | – |
| Cc1cc(C#N)nc(N2CCN(S(=O)(=O)c3ccc(NC(=O)c4cc(CNCCCN)ccc4N(C)S(C)(=O)=O)cc3)CC2)n1.Cl.Cl [EBL-3599] | – | – | – | – | – | – | – | – | – | – | – | – | – | – | – | – | – | – | – | 0.02 | – |
| Cc1cc(C#N)nc(N2CCN(S(=O)(=O)c3ccc(NC(=O)c4cc(CN5CC(CN)C5)ccc4N(C)S(C)(=O)=O)cc3)CC2)n1 [EBL-3647] | – | – | – | – | – | – | – | – | – | – | – | – | – | – | – | – | – | – | – | 0.025 | – |
| CN(c1ccccc1C(=O)Nc1ccc(S(=O)(=O)N2CCCCC2)cc1)S(C)(=O)=O [JEDI-852] | 4 µg/mL (≈ 8.86 µM) | 64 µg/mL (≈ 142 µM) | > 64 µg/mL | 32 µg/mL (≈ 70.9 µM) | > 64 µg/mL | 2 µg/mL (≈ 4.43 µM) | 16 µg/mL (≈ 35.4 µM) | 16 µg/mL (≈ 35.4 µM) | > 64 µg/mL | 32 µg/mL (≈ 70.9 µM) | 16 µg/mL (≈ 35.4 µM) | 32 µg/mL (≈ 70.9 µM) | 32 µg/mL (≈ 70.9 µM) | > 64 µg/mL | > 64 µg/mL | > 64 µg/mL | 8 µg/mL (≈ 17.7 µM) | > 64 µg/mL | > 64 µg/mL | – | MIC ([1]; MG1655, read-out: MIC CH8855): > 64 µg/mL; MIC ([1]; MG1655, read-out: MIC CH8856): > 64 µg/mL; MIC ([1]; MG1655, read-out: MIC CH8868): > 64 µg/mL; MIC ([1]; MG1655, read-out: MIC CH8869): 4 µg/mL (≈ 8.86 µM); MIC ([1]; MG1655, read-out: MIC CH8870): 32 µg/mL (≈ 70.9 µM); MIC ([1]; MG1655, read-out: MIC CH8871): > 64 µg/mL |
| CN(c1ccccc1C(=O)Nc1ccc(S(=O)(=O)N2CCN(c3cccc(C(F)(F)F)c3)CC2)cc1)S(C)(=O)=O [JEDI-1444] | 0.016 µg/mL (≈ 0.0268 µM) | 0.25 µg/mL (≈ 0.419 µM) | 1 µg/mL (≈ 1.68 µM) | 0.064 µg/mL (≈ 0.107 µM) | > 2 µg/mL | 0.064 µg/mL (≈ 0.107 µM) | 0.25 µg/mL (≈ 0.419 µM) | 0.064 µg/mL (≈ 0.107 µM) | 0.125 µg/mL (≈ 0.21 µM) | 0.064 µg/mL (≈ 0.107 µM) | 0.125 µg/mL (≈ 0.21 µM) | 1 µg/mL (≈ 1.68 µM) | 0.25 µg/mL (≈ 0.419 µM) | > 2 µg/mL | 0.5 µg/mL (≈ 0.838 µM) | 0.5 µg/mL (≈ 0.838 µM) | 0.25 µg/mL (≈ 0.419 µM) | 0.25 µg/mL (≈ 0.419 µM) | 0.25 µg/mL (≈ 0.419 µM) | 0.001 | MIC ([1]; MG1655, read-out: MIC CH8855): > 2 µg/mL; MIC ([1]; MG1655, read-out: MIC CH8856): > 2 µg/mL; MIC ([1]; MG1655, read-out: MIC CH8868): 2 µg/mL (≈ 3.35 µM); MIC ([1]; MG1655, read-out: MIC CH8869): 0.064 µg/mL (≈ 0.107 µM); MIC ([1]; MG1655, read-out: MIC CH8870): 0.25 µg/mL (≈ 0.419 µM); MIC ([1]; MG1655, read-out: MIC CH8871): 2 µg/mL (≈ 3.35 µM) |
